These results are taken from US20260020566A1, “FUNGICIDAL COMPOSITIONS” (SYNGENTA CROP PROTECTION AG, priority 2022, published 2026).

Where “and” joins values, the source holds several entries; their conditions need not be identical. Equal values may be shown once.

The test system of one assay is Septoria tritici. Briefly: Septoria tritici (Leaf blotch) liquid culture growth inhibition, microtiter plate. Type of assay: cell-based. The note with it: single compound, 72 hrs, 24 C. As for the experimental part:
Septoria tritici (Leaf Blotch): Conidia of the fungus from cryogenic storage were directly mixed into nutrient broth (PDB potato dextrose broth). A DMSO solution of the test compounds was placed into a microtiter plate (96-well format) and the nutrient broth containing the fungal spores was added to it. The test plates were incubated at 24 C and the inhibition of growth was determined photometrically after 72 hrs.

The test system of a further assay is Botrytis cinerea. Description: Botrytis cinerea (Gray mould) liquid culture growth inhibition, microtiter plate. Type of assay: cell-based. Conditions: single compound, 72 hrs, 24 C, read-out: Observed Activity (%). The protocol: Botrytis cinerea (Gray Mould): Conidia of the fungus from cryogenic storage were directly mixed into nutrient broth (PDB potato dextrose broth). A DMSO solution of the test compounds was placed into a microtiter plate (96-well format) and the nutrient broth containing the fungal spores was added to it. The test plates were incubated at 24 C and the inhibition of growth was determined photometrically after 72 hrs.

A further assay relates to Phakopsora pachyrhizi. Briefly: Phakopsora pachyrhizi (Soybean rust) soybean leaf disk preventive fungicidal activity. In kind it is in vivo. Conditions: single compound, approx. 12 dpi; for inhibition at 1 g/ha / inhibition at 3 g/ha: Phakopsora pachyrhizi, foliar, read-out: Observed Activity (%). As for the experimental part: Phakopsora pachyrhizi (Soybean Rust): Soybean leaf disks are placed on agar in multiwell plates (24-well format) and sprayed with test solutions. After drying, the leaf disks are inoculated with a spore suspension of the fungus. After appropriate incubation the activity of a compound is assessed approx. 12 dpi (days after inoculation) as preventive fungicidal activity.

The subject of assay [1] is Mycosphaerella arachidis syn. Cercospora arachidicola. Description: Mycosphaerella arachidis syn. Cercospora arachidicola (Brown leaf spot of peanut) liquid culture growth inhibition. The note with it: single compound, approximately 5-6 days, 24 C, read-out: Observed Activity (%). Type of assay: cell-based. The protocol:
Mycosphaerella arachidis syn. Cercospora arachidicola (Brown Leaf Spot of Peanut): Conidia of the fungus from cryogenic storage were directly mixed into nutrient broth (PDB potato dextrose broth). A DMSO solution of the test compounds was placed into a microtiter plate (96-well format) and the nutrient broth containing the fungal spores was added to it. The test plates were incubated at 24 C and the inhibition of growth was determined photometrically after approximately 5-6 days at 620nm

The mark [2] stands for this setting: Zymoseptoria tritici, read-out: Observed Activity (%).

Consider `COC(=O)NCc1cc(-c2ccn(-c3c(F)cc(C4CC4)cc3F)n2)ccc1C` [methyl N-[[5-[1-(4-cyclopropyl-2,6-difluoro-phenyl)pyrazol-3-yl]-2-methyl-phenyl]methyl]carbamate, reference compound], for which the inhibition at 0.0008 ppm in the assay with Septoria tritici (Zymoseptoria tritici, 0.0008 ppm, read-out: Observed Activity (%)) is 20%. The inhibition at 0.0074 ppm in the assay on Botrytis cinerea (0.0074 ppm) amounted to 0%. Moreover, the inhibition at 0.022 ppm in the assay with Botrytis cinerea (0.022 ppm) turned out to be 50%. Besides, the inhibition at 1 g/ha with Phakopsora pachyrhizi (1 g a.i./ha) was determined as 12%. The inhibition at 3 g/ha in the assay on Phakopsora pachyrhizi (3 g a.i./ha) came out at 54%. Moreover, in assay [1] (0.00246 ppm), the inhibition at 0.00246 ppm turned out to be 20%.
Take `CCOC(=O)c1cnn(Cc2ccc(OCC3(C(F)(F)F)OCCO3)cc2)c1` [ethyl 1-[[4-[[2-(trifluoromethyl)-1,3-dioxolan-2-yl]methoxy]phenyl]methyl]pyrazole-4-carboxylate]: in the assay with Botrytis cinerea, the inhibition at 6.66 ppm came out at 0% and the inhibition at 20 ppm was 0%. Also, in the assay with Phakopsora pachyrhizi (1 g a.i./ha), the inhibition at 1 g/ha worked out at 35%.
For the compound “1-(2,6-difluoro-4-isopropyl-phenyl)pyrazole; methyl N-[(2,5-dimethylphenyl)methyl]carbamate [reference compound]”, the “Observed Activity (%)” value amounted to 20% in the assay on Septoria tritici (0.0008 ppm), 70% in the assay on Septoria tritici (0.00246 ppm), 3% in the assay on Phakopsora pachyrhizi (1 g a.i./ha) and 65% in the assay with Phakopsora pachyrhizi (3 g a.i./ha).
With `Fc1cccc(F)c1C1(Nc2ncc(-c3nnc(C(F)F)o3)cn2)CC1` [Compound A-1.3, 5-[5-(difluoromethyl)-1,3,4-oxadiazol-2-yl]-N-[1-(2,6-difluorophenyl)cyclopropyl]pyrimidin-2-amine], the inhibition at 10 ppm (with Septoria tritici (setting [2]); in the assay with Botrytis cinerea; in assay [1] (10 ppm)) was 20% in each case. The inhibition at 20 ppm (with Septoria tritici (setting [2]); with Botrytis cinerea; in assay [1] (20 ppm)) was 20% each time. In addition, the inhibition at 3 g/ha in the assay with Phakopsora pachyrhizi (3 g a.i./ha) came out at 47%. Also, the “Observed Activity (%)” value in the assay with Phakopsora pachyrhizi (1 g a.i./ha) was 5% and 1%.
Take `Fc1ccccc1C1(Nc2ncc(-c3nnc(C(F)F)o3)cn2)CC1` [Compound A-1.4, 5-[5-(difluoromethyl)-1,3,4-oxadiazol-2-yl]-N-[1-(2-fluorophenyl)cyclopropyl]pyrimidin-2-amine]: in the assay with Septoria tritici (setting [2]), the inhibition at 10 ppm turned out to be 20% and the inhibition at 20 ppm was 20%. In addition, in the assay on Botrytis cinerea, the inhibition at 10 ppm amounted to 20% and the inhibition at 20 ppm came to 20%. In addition, in the assay on Phakopsora pachyrhizi (1 g a.i./ha), the inhibition at 1 g/ha stood at 12% and the “Observed Activity (%)” value was found to be 16%. In the assay on Phakopsora pachyrhizi (3 g a.i./ha), the inhibition at 3 g/ha was found to be 43% and the “Observed Activity (%)” value amounted to 45%.
On to `Fc1cccc(F)c1C1(Oc2ncc(-c3nnc(C(F)F)o3)cn2)CC1` [Compound A-1.2, 2-(difluoromethyl)-5-[2-[1-(2,6-difluorophenyl)cyclopropoxy]pyrimidin-5-yl]-1,3,4-oxadiazole], for which, in the assay on Septoria tritici (setting [2]), the inhibition at 10 ppm was 0%. Moreover, in the assay on Septoria tritici (setting [2]), the inhibition at 20 ppm stood at 0%. The “Observed Activity (%)” value in the assay with Phakopsora pachyrhizi (1 g a.i./ha) is 0% and 9%; in the assay on Phakopsora pachyrhizi (3 g a.i./ha), 4% and 0%; in the assay with Phakopsora pachyrhizi (6 g a.i./ha), 5%.
`CCOC(=O)c1cnn(Cc2ccc(O/C=C(\OCC)C(F)(F)F)cc2)c1` [ethyl 1-[[4-[(Z)-2-ethoxy-3,3,3-trifluoro-prop-1-enoxy]phenyl]methyl]pyrazole-4-carboxylate, reference compound]: the inhibition at 20 ppm in the assay with Septoria tritici (setting [2]) was 20%. Besides, in the assay on Botrytis cinerea, the inhibition at 6.66 ppm stood at 20% and the inhibition at 20 ppm amounted to 20%. The inhibition at 1 g/ha in the assay with Phakopsora pachyrhizi (1 g a.i./ha) worked out at 38%. Besides, the inhibition at 3 g/ha with Phakopsora pachyrhizi (3 g a.i./ha) came out at 56%.
